# Values joined by “and” are separate entries in the source; they are usually repeats but may differ in a detail not shown here. Equal entries are not always repeated. Peptide text beside a SMILES is read from it.
# Tests used:
# [1] = biological target: T1, BK B2R (human umbilical vein rings) (Homo sapiens, UniProt P30411); test: Human isolated umbilical vein contractility assay; format: cell-based; conditions: for reduction of contractile potency by Plummer's inhibitor: Plummer's inhibitor vs control tissues; for decrease of apparent contractile potency by ACE blockade: enalaprilat 1 μM vs paired control tissues; for +Peptidase inhibitor log(EC50) ± SE / Control (DMSO vehicle) log(EC50) ± SE: log of contractile EC50; for Control (DMSO vehicle) log(EC50) ± SE: no peptidase inhibitor, paired tissues
# T1 construct: from tissue; host or cells: human umbilical vein rings
# T1 sequence (P30411 1-391): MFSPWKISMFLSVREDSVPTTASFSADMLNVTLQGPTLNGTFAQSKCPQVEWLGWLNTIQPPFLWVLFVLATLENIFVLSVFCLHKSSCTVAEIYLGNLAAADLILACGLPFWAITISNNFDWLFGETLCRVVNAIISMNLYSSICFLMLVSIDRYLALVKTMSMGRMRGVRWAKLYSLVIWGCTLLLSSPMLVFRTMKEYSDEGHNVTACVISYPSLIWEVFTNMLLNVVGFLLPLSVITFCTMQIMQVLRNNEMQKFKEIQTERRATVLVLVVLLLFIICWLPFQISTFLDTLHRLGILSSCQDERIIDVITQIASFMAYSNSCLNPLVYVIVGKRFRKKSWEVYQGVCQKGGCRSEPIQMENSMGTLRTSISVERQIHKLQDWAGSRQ
# Description: The institutional research ethics board (CHU de Québec) approved the anonymous use of human umbilical cord segments obtained after elective cesarean section deliveries. Informed consent was obtained from mothers. […] Tissues were used only once and discarded; controls curves were obtained from other vascular rings from the same vein.
# (§1) Results are presented as mean ± SEM. Radioligand binding data were fitted by non-linear regression to a one-site competition equation using a least-square method (Prism 4.0, GraphPad Software Inc., San Diego, CA, USA) and IC50 values calculated from this procedure. The same computer program was used to draw concentration-effect curves (least square fitting of sigmoidal dose-response equation with variable slope) and to derive contractile EC50 values. The qualitative effect of treatments on the distribution of the B2R-GFP fluorescent protein (either located at the plasma membrane or submitted to internalization) was evaluated for each HEK 293 cell in large microphotographic records and proportion of affected cells were compared using the χ^2 statistics to determine drug effect on the subcellular receptor distribution.
# [2] = biological target: human B1R (B1R-FLAG vector) (human) (UniProt P46663); test: radioligand binding; competition of 1 nM [^3H]Lys-des-Arg^9-BK binding to HEK 293a cells transiently expressing human B1R (B1R-FLAG vector); one-site competition fit
# [3] = biological target: rabbit B2R-green fluorescent protein (rabbit) (UniProt Q28642); test: radioligand binding; competition of 3 nM [^3H]BK binding to adherent intact HEK 293 cells stably expressing rabbit B2R-GFP by unlabeled peptides; 0 °C; peptidase inhibitors that included captopril; one-site competition fit
# [4] = biological target: T2, rabbit B2R-green fluorescent protein (B2R-GFP) (Oryctolagus cuniculus, UniProt Q28642); test: [3H]BK binding competition to B2R-GFP stably expressed in intact HEK 293 cells; conditions: for IC50 for B2R-GFP relative to unlabeled BK (fold greater IC50 / lower affinity): [3H]BK binding competition, vs BK; for [3H]BK binding to B2R-GFP log(IC50) ± SE: log of IC50, 3 nM [3H]BK, 0 °C, with peptidase inhibitors incl. captopril, HEK 293 cells
# T2 construct: expressed in transfected cells
# T2 sequence (Q28642 1-367): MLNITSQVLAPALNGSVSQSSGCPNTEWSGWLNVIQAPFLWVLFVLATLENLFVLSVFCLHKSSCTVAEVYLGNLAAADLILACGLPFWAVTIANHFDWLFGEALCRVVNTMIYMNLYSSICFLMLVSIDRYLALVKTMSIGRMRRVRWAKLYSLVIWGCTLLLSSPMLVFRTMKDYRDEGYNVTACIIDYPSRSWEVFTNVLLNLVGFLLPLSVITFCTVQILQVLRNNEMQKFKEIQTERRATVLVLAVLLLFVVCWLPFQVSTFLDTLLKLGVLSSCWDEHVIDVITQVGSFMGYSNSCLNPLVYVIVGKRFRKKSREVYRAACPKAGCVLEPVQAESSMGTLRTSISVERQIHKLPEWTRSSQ
# Method: (§2) Affinity for the B2R was evaluated using a radioligand binding competition assay performed at 0 °C in the presence of peptidase inhibitors that included captopril ([Houle et al., 2000]). […] Other HEK 293a cells that transiently expressed human recombinant ACE were used to perform a [^3H]enalaprilat binding assay as described ([Koumbadinga et al., 2010]; the peACE vector was a gift from Prof. P. Corvol, Paris, France).
# as §1
# human B1R (B1R-FLAG) = biological target: T3, human B1R (B1R-FLAG) (Homo sapiens, UniProt P46663); test: [3H]Lys-des-Arg9-BK binding competition to B1R-FLAG transiently expressed in HEK 293a cells; conditions: for [3H]Lys-des-Arg9-BK binding to B1R-FLAG log(IC50) ± SE: log of IC50, 1 nM [3H]Lys-des-Arg9-BK, HEK 293a cells
# T3 construct: FLAG; expressed in transfected cells
# T3 sequence (P46663 1-353): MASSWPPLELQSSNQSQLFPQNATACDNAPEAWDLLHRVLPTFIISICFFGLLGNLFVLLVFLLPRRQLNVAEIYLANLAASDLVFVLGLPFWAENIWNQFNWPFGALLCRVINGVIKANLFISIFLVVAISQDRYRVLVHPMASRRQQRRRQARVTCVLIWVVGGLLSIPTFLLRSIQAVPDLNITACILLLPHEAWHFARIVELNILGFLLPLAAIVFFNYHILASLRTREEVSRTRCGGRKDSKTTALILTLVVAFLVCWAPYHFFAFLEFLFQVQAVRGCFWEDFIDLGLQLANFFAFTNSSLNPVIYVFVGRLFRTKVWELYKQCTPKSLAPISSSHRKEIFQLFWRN
# human recombinant ACE [5] = biological target: T4, human recombinant ACE (Homo sapiens, UniProt P12821); test: [3H]enalaprilat binding competition to recombinant ACE transiently expressed in HEK 293a cells; design: expressed in transfected cells; host or cells: HEK 293a cells, transient expression (peACE vector, gift from Prof. P. Corvol)
# Method: as §2, §1
# [6] = biological target: endogenous B2 receptor of the human umbilical vein (human (endogenous in umbilical vein)) (UniProt P30411)
# human recombinant ACE [7] = biological target: T4, human recombinant ACE; test: radioligand binding; competition of 2 nM [^3H]enalaprilat binding to HEK 293a cells transiently expressing human recombinant ACE by BK and analogs; one-site competition fit
# T4 sequence (P12821 30-1306): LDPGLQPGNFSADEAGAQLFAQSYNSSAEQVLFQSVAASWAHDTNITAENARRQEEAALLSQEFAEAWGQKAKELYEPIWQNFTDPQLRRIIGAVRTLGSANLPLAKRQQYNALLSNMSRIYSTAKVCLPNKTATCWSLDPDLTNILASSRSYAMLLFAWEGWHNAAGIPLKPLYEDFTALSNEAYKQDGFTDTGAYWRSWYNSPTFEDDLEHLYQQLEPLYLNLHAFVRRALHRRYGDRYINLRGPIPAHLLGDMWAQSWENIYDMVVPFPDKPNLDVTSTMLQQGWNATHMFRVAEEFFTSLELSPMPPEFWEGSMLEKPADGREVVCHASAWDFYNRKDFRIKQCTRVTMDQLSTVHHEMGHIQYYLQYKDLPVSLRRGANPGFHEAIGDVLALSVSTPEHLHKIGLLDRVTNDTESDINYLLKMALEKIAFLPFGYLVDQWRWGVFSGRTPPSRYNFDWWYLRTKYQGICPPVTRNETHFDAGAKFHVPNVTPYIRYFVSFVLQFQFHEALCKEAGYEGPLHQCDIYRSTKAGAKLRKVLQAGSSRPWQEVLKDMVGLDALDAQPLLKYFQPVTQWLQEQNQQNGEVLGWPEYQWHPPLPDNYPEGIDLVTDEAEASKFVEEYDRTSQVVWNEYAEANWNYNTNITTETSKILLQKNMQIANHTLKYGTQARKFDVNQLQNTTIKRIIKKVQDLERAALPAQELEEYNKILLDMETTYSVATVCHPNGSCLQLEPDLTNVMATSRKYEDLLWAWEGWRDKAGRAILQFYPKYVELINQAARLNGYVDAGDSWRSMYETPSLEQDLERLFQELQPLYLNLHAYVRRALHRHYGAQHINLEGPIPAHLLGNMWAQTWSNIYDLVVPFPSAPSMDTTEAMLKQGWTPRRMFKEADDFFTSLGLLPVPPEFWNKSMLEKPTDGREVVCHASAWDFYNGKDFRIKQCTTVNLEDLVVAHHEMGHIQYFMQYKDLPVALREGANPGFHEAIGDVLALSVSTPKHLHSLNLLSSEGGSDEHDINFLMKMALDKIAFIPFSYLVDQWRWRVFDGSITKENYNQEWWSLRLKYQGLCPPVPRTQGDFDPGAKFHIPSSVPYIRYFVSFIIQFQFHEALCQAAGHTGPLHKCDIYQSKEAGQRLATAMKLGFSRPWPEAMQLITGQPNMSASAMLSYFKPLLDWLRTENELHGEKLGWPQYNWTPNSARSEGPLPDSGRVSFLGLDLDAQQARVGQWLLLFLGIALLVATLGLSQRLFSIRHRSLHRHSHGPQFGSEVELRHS
Molecule,log(IC50) [2] [log M],log(IC50) [3] [log M],IC50 for B2R-GFP relative to unlabeled BK (fold greater IC50 / lower affinity) [4] [fold],[3H]BK binding to B2R-GFP log(IC50) ± SE [4],[3H]Lys-des-Arg9-BK binding to B1R-FLAG log(IC50) ± SE (human B1R (B1R-FLAG)),Control (DMSO vehicle) log(EC50) ± SE [1],log(IC50) (human recombinant ACE [7]) [log M],reduction of contractile potency by Plummer's inhibitor [1],decrease of apparent contractile potency by ACE blockade [1],further results
"N=C(N)NCCC[C@H](NC(=O)[C@H](Cc1ccccc1)NC(=O)[C@@H]1CCCN1C(=O)[C@H](CO)NC(=O)[C@H](Cc1ccccc1)NC(=O)CNC(=O)[C@@H]1CCCN1C(=O)[C@@H]1CCCN1C(=O)[C@@H](N)CCCNC(=N)N)C(=O)O [BK, Bradykinin, reference compound] (H-RPPGFSPFR-OH)",–,–,–,–,–,–,–,did not affect,not changed,–
BK-His-Leu (peptide),> -5,-5.24,–,–,–,–,-5.28,–,–,"log(EC50) of contraction of the human isolated umbilical vein, with ACE blocked by enalaprilat 1 μM, Figure 3C [6]: -5.34 log M"
BK-Ser-Tyr (peptide),> -5,-5.79,–,–,–,–,-5.21,–,–,"log(EC50) of contraction of the human isolated umbilical vein, with ACE blocked by enalaprilat 1 μM, Figure 3B [6]: -6.32 log M"

# Second part, led by results:
log(IC50) [2] [log M],log(IC50) [3] [log M],IC50 for B2R-GFP relative to unlabeled BK (fold greater IC50 / lower affinity) [4] [fold],[3H]BK binding to B2R-GFP log(IC50) ± SE [4],[3H]Lys-des-Arg9-BK binding to B1R-FLAG log(IC50) ± SE (human B1R (B1R-FLAG)),Control (DMSO vehicle) log(EC50) ± SE [1],log(IC50) (human recombinant ACE [7]) [log M],Molecule,reduction of contractile potency by Plummer's inhibitor [1],decrease of apparent contractile potency by ACE blockade [1],further results
-5.12,-6.34,–,–,–,–,–,BK-Arg (peptide),–,–,–
–,–,363,-5.24 ± 0.20,>-5,-6.61 ± 0.11,–,CC(C)C[C@H](NC(=O)[C@H](Cc1c[nH]cn1)NC(=O)[C@H](CCCNC(=N)N)NC(=O)[C@H](Cc1ccccc1)NC(=O)[C@@H]1CCCN1C(=O)[C@H](CO)NC(=O)[C@H](Cc1ccccc1)NC(=O)CNC(=O)[C@@H]1CCCN1C(=O)[C@@H]1CCCN1C(=O)[C@@H](N)CCCNC(=N)N)C(=O)O [BK-His-Leu] (H-RPPGFSPFRHL-OH; N-terminus and C-terminus assumed),–,18 fold and 18.3 fold,"fold less potent than BK as contractile agent ([1]; control conditions, vs BK): 13.5 fold; +Peptidase inhibitor log(EC50) ± SE ([1]; enalaprilat 1 μM, 30 min before agonist): -5.34 ± 0.06; fold lesser affinity vs. BK for ACE (human recombinant ACE [5]; [3H]enalaprilat binding competition, vs BK): 3.33 fold; [3H]enalaprilat binding to ACE log(IC50) ± SE (human recombinant ACE [5]; log of IC50, 2 nM [3H]enalaprilat, HEK 293a cells): -5.28 ± 0.22"
–,–,29,-6.34 ± 0.11,-5.12 ± 0.10,-6.67 ± 0.08,–,N=C(N)NCCC[C@H](NC(=O)[C@H](CCCNC(=N)N)NC(=O)[C@H](Cc1ccccc1)NC(=O)[C@@H]1CCCN1C(=O)[C@H](CO)NC(=O)[C@H](Cc1ccccc1)NC(=O)CNC(=O)[C@@H]1CCCN1C(=O)[C@@H]1CCCN1C(=O)[C@@H](N)CCCNC(=N)N)C(=O)O [BK-Arg] (H-RPPGFSPFRR-OH; N-terminus and C-terminus assumed),15 fold,–,"IC50 (human B1R (B1R-FLAG); competition of [3H]Lys-des-Arg9-BK binding, read-out: IC50 for recombinant human B1R): 7.6 µM; +Peptidase inhibitor log(EC50) ± SE ([1]; Plummer's inhibitor 1 μM): -5.49 ± 0.07"

# From PMC3945637 (Frontiers in Pharmacology, 2014)
